What was measured:
[1] = tested on: AMPA induced [3H]GABA release from cultured cortical neurons; assay: Potentiation of AMPA induced [3H]GABA release from cultured cortical neurons; type: cell-based, mouse; settings: 5 μM AMPA; expressed relative to potentiation induced by 30 μM cyclothiazide; FIGS. 1 and 2
Method: Neurons which express receptors for excitatory amino acids can be depolarized by such compounds and this depolariztion will ultimately lead to a release of transmitter substance from the neurons. Cultured neurons obtained from 16-day-old mouse embryo cortex are mainly GABAergic and express all types of excitatory amino acid receptors. This means that they can be stimulated by high potassium (55 mM) or by the excitatory amino acids NMDA (20 μM), AMPA (5 μM) and kainate (5 μM) to release their neurotransmitter GABA.
^3H-GABA may be used to label the GABA transmitter pool in the neurons and the release of ^3H-GABA from the neurons may be used as a simple functional model for studies of the effects of excitatory amino acid receptor agonists, antagonists, and modulators.
Cerebral cortices of 15–16 day-old NMRI mouse embryos are chopped in 0.4×0.4 mm cubes and the tissue is dissociated by mild trypsinization (0.1% (wt/vol) trypsin, 37° C., 10 min). Subsequently the cell suspension (3 mill/ml) is inoculated into poly-L-lysine-coated 30 mm Petri dishes (3 ml/dish) containing a slightly modified DMEM (24.5 mM KCl) supplemented with p-aminobenzoate (7 μM), insulin (100 mU/L) and 10% (vol/vol) horse serum. Cells are maintained in culture for 5–7 days with the addition of the antimitotic agent cytosine arbinoside (5 μM) from day 2 in vitro to prevent glial proliferation. […]

AMPA receptor = assay: Voltage clamp (whole cell patch clamp), current induced by AMPA in cultured mouse neocortical neurons; type: cell-based; settings: for reversibility of the potentiation: after wash out of the compound; for potentiation of the current induced by application of 30 μM AMPA: holding voltage −60 mV
Method: Experiments were performed in voltage clamp using conventional whole cell patch clamp methods (Hamill et al., 1981), essentially as described previously (Mathiesen et al., 1998). The following salt solutions were used (mM): NaCl (140), KCl (4), CaCl2 (2), MgCl2 (1), Sucrose (30), Tetrodotoxin (0.0003), Bicuculline Methiodide (0.005) and HEPES (10, pH 7.4). Intracellular solution (mM): CsCl (120), CsF (20), MgCl2 (2), EGTA (10), HEPES (10, pH=7.2).
Mouse neocortical neurons were cultured essentially as described by Drejer et al. (1987). Briefly, the forebrains from embryonic (E17) NMRI mice were removed under sterile conditions. The tissue was chopped in 0.4 mm cubes and the triturated with trypsin (12.5 μg/ml) and DNAse (2.5 μg/ml), 15 min, 37° C. The cells were suspended at a concentration of 1×10^6 cells/ml in a slightly modified DMEM which contained horse serum (10% (v/v)), penicillin (333 U/ml), paraaminobenzoic acid (1 mg/ml), L-glutamine (0.5 mM), insulin (0.08 U/ml) and KCl (23.8 mM). The cell suspension was subsequently inoculated into poly-L-lysine coated 35 mm Petri dishes (2 ml/dish). Glass coverslips (3.5 mm) were placed in the dishes before coating. After 24 hr in culture, the medium was replaced by freshly made medium containing 1% N2 supplement instead of serum.
The cells were kept in culture for 7–14 days at 37° C. (5% CO2/95% O2) before experiments were carried out.
Electronics, programs and data acquisition: The amplifier used was the EPC-9 (HEKA-electronics, Lambrect, Germany) run by a Power Macintosh G3 computer via an ITC-16 interface. Experimental conditions were set with the Pulse-software accompanying the amplifier. Data were low pass filtered and sampled directly to hard-disk at a rate of 3 times the cut-off frequency.
Pipettes and electrodes: Pipettes were pulled from borosilicate glass (Modulohm, Copenhagen, Denmark) using a horizontal electrode puller (Zeitz-Instrumente, Augsburg, Germany). The pipette resistances were 1.7–2.4 MW in the salt solutions used in these experiments. The pipette electrode was a chloridized silver wire, and the reference was a silverchloride pellet electrode (In Vivo Metric, Healdsburg, USA) fixed to the experimental chamber. The electrodes were zeroed with the open pipette in the bath just prior to sealing.
Experimental procedure: Coverslips were transferred to a […] experimental chamber mounted on the stage of an inverted microscope (IMT-2, Olympus) supplied with Nomarski optics. The neurons were continuously superfused with extracellular saline at a rate of 2.5 ml/min. After giga-seal formation (1–5 GW, success-rate≈90%) the whole cell configuration was attained by suction.
The cells were held at a holding voltage of −60 mV and at the start of each experiment the current was continuously measured for at least 30 sec to ensure a stable leak current. AMPA-containing solutions were delivered to the chamber through a custom-made gravity-driven flowpipe, the tip of which was placed approximately 50 μm from the cell. Application was triggered when the tubing connected to the flow pipe was compressed by a valve controlled by the Pulse-software. AMPA (30 μM) was applied for 1 sec every 45 sec. After obtainment of responses of a repeatable amplitude the compound to be tested was included in both the chamber and in the AMPA-containing solution. The compound was present until responses of a new repeatable was obtained.
The sample interval in all experiments was 310 μsec.
All experiments were performed at room temperature (20–25° C.).

| SMILES | potentiation of AMPA induced [3H]GABA release [1] | reversibility of the potentiation (AMPA receptor) | potentiation of the current induced by application of 30 μM AMPA (AMPA receptor; compound 10 μM) | persistence of the effect after wash out (AMPA receptor; compound 3 μM) | potentiation of the current induced by application of 30 μM AMPA (AMPA receptor; compound 3 μM) | concentration dependence of the effect (AMPA receptor; FIG. 8) |
| --- | --- | --- | --- | --- | --- | --- |
| Cc1cc2c(cc1S(=O)(=O)N1CCOCC1)S(=O)(=O)NC(C1CCCCC1)N2 (stereo not shown) [Compound 115, 3-Cyclohexyl-6-methyl-7-morpholinosulfonyl-1,2,3,4-tetrahydro-1,2,4-benzothiadiazine-1,1-dioxide] | potentiation | reversible | potentiated |  |  |  |
| O=S1(=O)NC(C2CCCCC2)Nc2ccc(S(=O)(=O)N3CCOCC3)cc21 (stereo not shown) [Compound 63, 3-Cyclohexyl-7-morpholinosulfonyl-1,2,3,4-tetrahydro-1,2,4-benzothiadiazine-1,1-dioxide] |  | reversible |  | persits for several minutes after wash out | potentiated |  |
| Cc1cc2c(cc1S(=O)(=O)N1CCCCC1)S(=O)(=O)NC(C1CCCC1)N2 (stereo not shown) [Compound 114, 3-Cyclopentyl-6-methyl-7-piperidinosulfonyl-1,2,3,4-tetrahydro-1,2,4-benzothia-diazine-1,1-dioxide] | potentiation | reversible |  |  | potentiated | concentration-dependent |

From US7235548B2, “Compounds and their use as positive AMPA receptor modulators” (NeuroSearch A/S, priority 1998, dated 2007)
